Like-named read-outs stand apart in the source and are kept apart here.
Key:
[1] = test system: HCV genotype 1a (H77 strain) replicon in HUH-7 cells; experiment: HCV replicon luciferase reporter assay, genotype 1a; type: cell-based; settings: Hepatitis C virus, 72 h, genotype 1a replicon, 3 days incubation
From the text: (§1) An HCV replicon whole cell system was established as described by Lohmann V, Korner F, Koch J, Herian U, Theilmann L, Bartenschlager R., Science 285(5424):110-3 (1999) and modified to introduce a luciferase reporter, as first described by Krieger et al (Krieger N, Lohmann V, and Bartenschlager R, J. Virol. 75(10):4614-4624 (2001)). CDNA encoding a humanized form of the Renilla luciferase gene and a linker sequence fused directly to the 3′-end of the luciferase gene were introduced into the replicon construct using an Asc1 restriction site located in core, directly upstream of the neomycin marker gene. The adaptive mutation at position 1179 (serine to isoleucine) was also introduced (Blight K J, Kolykhalov, A A, Rice, C M, Science 290(5498):1972-1974). A stable cell line constitutively expressing this HCV replicon construct was generated by first linearizing plasmid DNAs with ScaI. RNA transcripts were synthesized in vitro using the T7 MegaScript transcription kit (Ambion, Austin, Tex.) according to manufacturer's directions. In vitro transcripts of the cDNA were transfected into the human hepatoma cell line, HUH-7. […] Resulting cell lines were characterized for positive and negative strand RNA production and protein production over time.
A stable HCV replicon luciferase reporter cell line representing the genotype 1a H77 strain (Yanagi M, Purcell R H, Emerson S U, et al. Transcripts from a single full-length cDNA clone of hepatitis C virus are infectious when directly transfected into the liver of a chimpanzee. Proc Natl Acad Sci USA 1997; 94(16):8738-8743) was generated as described previously for the genotype 1b (Con1) replicon luciferase cell line. The replicon construct was modified by introducing mutations were introduced into the genes encoding the NS3 helicase domain (proline replaced by leucine at position 1496) and NS5A (serine to isoleucine at position 2204) to improve replication in cell culture.
(§2) HCV replicon luciferase assays were developed to monitor the inhibitory effects of compounds described in the disclosure on HCV genotypes 1a and 1b viral replication. HUH-7 cells, constitutively expressing the HCV replicon, were grown in Dulbecco's Modified Eagle Media (DMEM) (Gibco-BRL) containing 10% Fetal calf serum (FCS) (Sigma) and 1 mg/mL G418 (Gibco-BRL). Compounds were serially diluted 3 folds in DMSO for a twenty-point titration and subsequently transferred to sterile 384-well tissue-culture treated plates (Corning cat #3571). The plates were then seeded with 50 μL of cells at a density of 3.0×10^3 cells/well in DMEM containing 4% FCS (final DMSO concentration at 0.5%). After 3 days incubation at 37° C., cells were analyzed for Renilla Luciferase activity using the EnduRen as substrate (Promega cat #E6485). The EnduRen substrate was diluted in DMEM and then added to the plates to a final concentration of 7.5 μM. The plates were incubated for 2 hrs at 37° C. and then read immediately for 30 seconds with Viewlux Imager (PerkinElmer) using a luminescence program. To assess cytotoxicity of compounds, CC50 values were generated by multiplexing the EnduRen-containing plates with Cell Titer-Blue (Promega, cat # G8082). Cell-Titer Blue (3 μL) was added to each well and incubated for 8 hrs at 37° C. The fluorescence signal from each well was read, with an excitation wavelength at 525/10 nm and an emission wavelength of 598/10 nm, using the Viewlux Imager.
(§3) The EC50 values for compounds were calculated by using a four-parameter logistic equation: y=A+((B−A)/(1+((C/x)^D))), where A and B denotes minimal and maximal % inhibition, respectively, C is the EC50, D is the hill slope and x represents compound concentration.

[2] = test system: HCV genotype 1b (Con1) replicon in HUH-7 cells; experiment: HCV replicon luciferase reporter assay, genotype 1b; type: cell-based; settings: Hepatitis C virus, 72 h, genotype 1b replicon, 3 days incubation
From the text: as §1, with “time. […]” for “time.”
as §2, §3

Question: `COC[C@@H]1C[C@H](C)CC/C=C\[C@@H]2C[C@@]2(C(=O)NS(=O)(=O)C2(CF)CC2)NC(=O)[C@@H]2C[C@@H](Oc3nc4cc(OC)ccc4nc3C(F)(F)F)CN2C(=O)[C@H]1NC(=O)OC(C)(C)C` [Compound 1035, tert-butyl ((2R,6S,7R,9R,13aS,14aR,16aS,Z)-14a-(((1-(fluoromethyl)cyclopropyl)sulfonyl)carbamoyl)-2-((7-methoxy-3-(trifluoromethyl)quinoxalin-2-yl)oxy)-7-(methoxymethyl)-9-methyl-5,16-dioxo-1,2,3,5,6,7,8,9,10,11,13a,14,14a,15,16,16a-hexadecahydrocyclopropa[e]pyrrolo[1,2-a][1,4]diazacyclopentadecin-6-yl)carbamate] was tested. Which EC50 ([1]; read-out: LE_1a (EC50, range)) did it give?
Answer: The EC50 was 1.01 to 5 nM.

Question: And the EC50 ([2]; read-out: LE_1b (EC50, range))?
Answer: The EC50 was 1.01 to 5 nM.

Question: Which results are given for `COC[C@@H]1CCCC/C=C\[C@@H]2C[C@@]2(C(=O)NS(=O)(=O)C2CC2)NC(=O)[C@@H]2C[C@@H](Oc3nccc4cc(OC)c(F)cc34)CN2C(=O)[C@H]1NC(=O)OC(C)(C)C(F)(F)F` [Compound 1023]?
Answer: EC50 ([1]; read-out: LE_1a (EC50, range)): 1.01 to 5 nM; EC50 ([2]; read-out: LE_1b (EC50, range)): 0.1 to 0.5 nM

Question: With `COC[C@@H]1C[C@@H](C)CC/C=C\[C@@H]2C[C@@]2(C(=O)NS(=O)(=O)C2CC2)NC(=O)[C@@H]2C[C@@H](Oc3nc4cc(OC)ccc4nc3C(F)(F)F)CN2C(=O)[C@H]1NC(=O)OC(C)(C)C(F)(F)F` [Compound 1042, 1,1,1-trifluoro-2-methylpropan-2-yl ((2R,6S,7R,9S,13aS,14aR,16aS,Z)-14a-((cyclopropylsulfonyl)carbamoyl)-2-((7-methoxy-3-(trifluoromethyl)quinoxalin-2-yl)oxy)-7-(methoxymethyl)-9-methyl-5,16-dioxo-1,2,3,5,6,7,8,9,10,11,13a,14,14a,15,16,16a-hexadecahydrocyclopropa[e]pyrrolo[1,2-a][1,4]diazacyclopentadecin-6-yl)carbamate] as the compound, how does the EC50 ([1]; read-out: LE_1a (EC50, range)) read?
Answer: Its EC50 is 5.01 to 35 nM.

Question: What about the EC50 ([2]; read-out: LE_1b (EC50, range)) of the same compound?
Answer: Its EC50 is 1.01 to 5 nM.

Question: What does the source list for `COC[C@@H]1C[C@H](C)CC/C=C\[C@@H]2C[C@@]2(C(=O)NS(=O)(=O)C2(CF)CC2)NC(=O)[C@@H]2C[C@@H](Oc3nc4cc(OC)ccc4nc3C(C)C)CN2C(=O)[C@H]1NC(=O)OC(C)(C)C` [Compound 1025, tert-butyl ((2R,6S,7R,9R,13aS,14aR,16aS,Z)-14a-(((1-(fluoromethyl)cyclopropyl)sulfonyl)carbamoyl)-2-((3-isopropyl-7-methoxyquinoxalin-2-yl)oxy)-7-(methoxymethyl)-9-methyl-5,16-dioxo-1,2,3,5,6,7,8,9,10,11,13a,14,14a,15,16,16a-hexadecahydrocyclopropa[e]pyrrolo[1,2-a][1,4]diazacyclopentadecin-6-yl)carbamate]?
Answer: EC50 ([1]; read-out: LE_1a (EC50)): 7.01 nM; EC50 ([1]; read-out: LE_1a (EC50, range)): 5.01 to 35 nM; EC50 ([2]; read-out: LE_1b (EC50)): 1.38 nM; EC50 ([2]; read-out: LE_1b (EC50, range)): 1.01 to 5 nM

Question: How did the EC50 ([2]; read-out: LE_1b (EC50, range)) turn out when `CCOc1cnc(O[C@@H]2C[C@H]3C(=O)N[C@]4(C(=O)NS(=O)(=O)C5(C)CC5)C[C@H]4/C=C\CC[C@H](C)C[C@@H](COC)[C@H](NC(=O)OC(C)(C)C(F)(F)F)C(=O)N3C2)c2ccc(OC)cc12` [Compound 1065, 1,1,1-trifluoro-2-methylpropan-2-yl ((2R,6S,7R,9S,13aS,14aR,16aS,Z)-2-((4-ethoxy-6-methoxyisoquinolin-1-yl)oxy)-7-(methoxymethyl)-9-methyl-14a-(((1-methylcyclopropyl)sulfonyl)carbamoyl)-5,16-dioxo-1,2,3,5,6,7,8,9,10,11,13a,14,14a,15,16,16a-hexadecahydrocyclopropa[e]pyrrolo[1,2-a][1,4]diazacyclopentadecin-6-yl)carbamate] was run?
Answer: The EC50 was 0.1 to 0.5 nM.

Question: Which EC50 ([2]; read-out: LE_1b (EC50, range)) does the source give for `COC[C@@H]1C[C@@H](C)CC/C=C\[C@@H]2C[C@@]2(C(=O)NS(=O)(=O)C2(C)CC2)NC(=O)[C@@H]2C[C@@H](Oc3nc4cc(OC)c(F)cc4nc3C(F)(F)F)CN2C(=O)[C@H]1NC(=O)OC(C)(C)C` [Compound 1045, tert-butyl ((2R,6S,7R,9S,13aS,14aR,16aS,Z)-2-((6-fluoro-7-methoxy-3-(trifluoromethyl)quinoxalin-2-yl)oxy)-7-(methoxymethyl)-9-methyl-14a-(((1-methylcyclopropyl)sulfonyl)carbamoyl)-5,16-dioxo-1,2,3,5,6,7,8,9,10,11,13a,14,14a,15,16,16a-hexadecahydrocyclopropa[e]pyrrolo[1,2-a][1,4]diazacyclopentadecin-6-yl)carbamate] here?
Answer: Its EC50 is 1.01 to 5 nM.

Question: With `CCOc1ccc2nc(C(F)(F)F)c(O[C@@H]3C[C@H]4C(=O)N[C@]5(C(=O)NS(=O)(=O)C6(C)CC6)C[C@H]5/C=C\CC[C@@H](C)C[C@@H](COC)[C@H](NC(=O)OC(C)(C)C(F)(F)F)C(=O)N4C3)nc2c1` [Compound 1054, 1,1,1-trifluoro-2-methylpropan-2-yl ((2R,6S,7R,9R,13aS,14aR,16aS,Z)-2-((7-ethoxy-3-(trifluoromethyl)quinoxalin-2-yl)oxy)-7-(methoxymethyl)-9-methyl-14a-(((1-methylcyclopropyl)sulfonyl)carbamoyl)-5,16-dioxo-1,2,3,5,6,7,8,9,10,11,13a,14,14a,15,16,16a-hexadecahydrocyclopropa[e]pyrrolo[1,2-a][1,4]diazacyclopentadecin-6-yl)carbamate] as the compound, how does the EC50 ([2]; read-out: LE_1b (EC50, range)) read?
Answer: Its EC50 is 0.1 to 0.5 nM.

Question: With `COC[C@@H]1C[C@H](C)CC/C=C\[C@@H]2C[C@@]2(C(=O)NS(=O)(=O)C2(C)CC2)NC(=O)[C@@H]2C[C@@H](Oc3nc(OC)c4c(OC)cccc4n3)CN2C(=O)[C@H]1NC(=O)OC(C)(C)C(C)(F)F` [Compound 1062, 3,3-difluoro-2-methylbutan-2-yl ((2R,6S,7R,9R,13aS,14aR,16aS,Z)-2-((4,5-dimethoxyquinazolin-2-yl)oxy)-7-(methoxymethyl)-9-methyl-14a-(((1-methylcyclopropyl)sulfonyl)carbamoyl)-5,16-dioxo-1,2,3,5,6,7,8,9,10,11,13a,14,14a,15,16,16a-hexadecahydrocyclopropa[e]pyrrolo[1,2-a][1,4]diazacyclopentadecin-6-yl)carbamate] as the compound, how does the EC50 ([2]; read-out: LE_1b (EC50, range)) read?
Answer: Its EC50 is 1.01 to 5 nM.

Question: For `CCOc1ccc2nc(C(F)(F)F)c(O[C@@H]3C[C@H]4C(=O)N[C@]5(C(=O)NS(=O)(=O)C6(C)CC6)C[C@H]5/C=C\CC[C@@H](C)C[C@@H](COC)[C@H](NC(=O)OC(C)(C)C(C)(F)F)C(=O)N4C3)nc2c1` [Compound 1052, 3,3-difluoro-2-methylbutan-2-yl ((2R,6S,7R,9R,13aS,14aR,16aS,Z)-2-((7-ethoxy-3-(trifluoromethyl)quinoxalin-2-yl)oxy)-7-(methoxymethyl)-9-methyl-14a-(((1-methylcyclopropyl)sulfonyl)carbamoyl)-5,16-dioxo-1,2,3,5,6,7,8,9,10,11,13a,14,14a,15,16,16a-hexadecahydrocyclopropa[e]pyrrolo[1,2-a][1,4]diazacyclopentadecin-6-yl)carbamate], which EC50 ([2]; read-out: LE_1b (EC50, range)) is on record?
Answer: The EC50 was 0.1 to 0.5 nM.

Source: patent publication US9580463B2 (BRISTOL-MYERS SQUIBB COMPANY, priority 2013, dated 2017)
